Data on 5 compounds can be found in patent US6358967B1, “Ergoline amine derivatives with blood pressure lowering effect” (priority 1998, dated 2002).

Each structure is given as a SMILES string. Counter-ions that a name gives are not always drawn. Bounds are passed on as bounds.

The subject of data set [1] is normotensive Wistar rats. As to the kind of experiment: Invasive blood pressure measurement in anesthetized rats, i.v. administration. The settings on record: 0.5 mg/kg i.v.; for Effect pressure/duration: duration: assessment class of duration; for Effect pressure/duration: pressure: assessment class of pressure fall; for Heart rate: change shown as arrow; for Duration: duration of blood pressure effect; for Diastol. pressure / Mean pressure / Systol. pressure: effect (fall) on arterial blood pressure. The class given is in vivo, rat. As for the experimental part: Male Wistar rats with a body weight (BW) of 300-450 g were used as experimental animals. The rats are anesthetized immediately before the experiment with 50 mg/kg pentobarbital Na intraperitoneally (i.p.) or 70 mg/kg inactin i.v. PE tubes are tied into the carotid artery and femoral vein.
(§1) To maintain the blood pressure and to prevent formation of thrombi in the PE tubes of the blood vessels, each hour 2.5 ml of heparinized 0.9% strength NaCl solution are infused through the femoral vein and 1.2 ml through the carotid artery.
The arterial blood pressure is measured invasively using a PONEMAH hemodynamic analyzer (HSE, March, Germany). Via the tube in the carotid artery, the arterial blood pressure is mechanoelectrically converted in a Statham transducer (ISOTEC), amplified in a Plugsys (DBA module, type 660), digitized in an A/D converter and input into the PC memory over defined time intervals. The values in the memory are then treated with an adapted algorithm in order to establish the blood pressure parameters to be calculated for heart rate, systolic, diastolic and mean blood pressure.
(§2) The ergoline derivatives are administered i.v. through the femoral vein as 5 percent EtOH/NaCl (0.9%) solution, 1 ml/kg in a dosage of 0.5 mg/kg test substance.

Data set [2] deals with normotensive Wistar rats after pretreatment with Ecolid. Nature of the data set: Blood pressure testing after blockade of autonomic nerve tracts with Ecolid. Type of data set: in vivo, rat. The settings on record: Table 2; for Effect pressure/duration: duration: assessment class of duration; for Effect pressure/duration: duration / Effect pressure/duration: pressure: after Ecolid; for Effect pressure/duration: duration / Effect pressure/duration: pressure / Heart rate / Duration: 0.5 mg/kg i.v.; for Effect pressure/duration: pressure: assessment class of pressure fall; for Heart rate: change shown as arrow; for Heart rate / Duration: rats pretreated with Ecolid; for Diastol. pressure / Mean pressure / Systol. pressure: effect (fall) on arterial blood pressure, Wistar rats pretreated with Ecolid 0.5 mg/kg i.v., test substance 0.5 mg/kg i.v.
Description: Ecolid is a ganglionic blocker which competitively blocks the postsynaptic cholinergic (nicotinergic) receptors in the autonomic ganglia. This interrupts neurotransmission in the ganglia in both the para-sympathetic and sympathetic regions of the autonomic nervous system. The consequence thereof is, inter alia, a fall in blood pressure. It is possible in this way to differentiate central and peripheral (i.e. direct points of action on the smooth muscles) effects.
The experimental animals used were male Wistar rats with a BW of 300-450 g. The rats are anesthetized immediately before the experiment with 70 mg/kg inactin i.v. PE tubes are tied into the carotid artery and femoral vein.
as §1
Before testing the ergoline derivatives, the experimental animals were treated with Ecolid (dose: 0.5 mg/kg, i.v.).
as §2
The time stated in the table corresponds to the period between administration of Ecolid and injection of the test substances.

Setting [3] is: anesthetized Wistar rats, Table 1.1.

Take `CN1CC(CNC(=O)C2CCC(C(=O)NCc3cccc(CN)c3)CC2)CC2c3cccc4[nH]cc(c34)CC21.O=C(O)C(F)(F)F.O=C(O)C(F)(F)F` (mixture of isomers) [Substance 9703131]: in data set [1] (Table 1.1), the “Effect pressure/duration: duration” value is on record as “↓↓↓/↓↓↓ (>30 min)” and the “Effect pressure/duration: pressure” value is recorded as “↓↓↓/↓↓↓ (>30%)”. Further, in data set [1] (Wistar rats, Table 1.1), the Heart rate result is recorded as “→” and the Duration was over 240 min. In data set [1] (setting [3]), the Diastol. pressure is on record as 55.2%, the Mean pressure is reported as 51.6% and the Systol. pressure turned out to be 47.5%. In addition, in data set [2], the “Effect pressure/duration: duration” value is recorded as “↓↓↓/↓↓↓ (> 30 min)”, the “Effect pressure/duration: pressure” value is reported as “↓↓↓/↓↓↓ (> 30%)”, the Heart rate result is reported as “→” and the Diastol. pressure was found to be 40.4%. In data set [2], the Mean pressure was determined as 32.4%, the “Systol. pressure” value is 32.9% and the Duration was over 60 min.
Consider `CN1C[C@H](CN2CCC(=O)NC2=O)C[C@@H]2c3cccc4[nH]cc(c34)C[C@H]21` [Dihydro-1-[[6-methyl-ergolin-8b-yl]-methyl]2,4-(1H, 3H)-pyrimidinedione, reference compound], for which, in data set [1] (Table 1.1), the “Effect pressure/duration: duration” value was “↓ (up to 10 min)” and the “Effect pressure/duration: pressure” value is on record as “↓↓↓ (>30%)”. In addition, in data set [1] (Wistar rats, Table 1.1), the Heart rate entry is “→” and the Duration result is “ca 10 min”. In data set [1] (setting [3]), the Diastol. pressure turned out to be 75.9%, the Mean pressure is given as 72.3% and the Systol. pressure stood at 70.9%. For the same compound, in data set [2], the “Effect pressure/duration: duration” value is recorded as “→/→ (no effect to 5%)”, the “Effect pressure/duration: pressure” value was “→/→ (no effect to 5%)”, the Heart rate entry is on record as “→” and the Diastol. pressure is reported as 0%. In addition, in data set [2], the Mean pressure stood at 0%, the “Systol. pressure” value came out at 0% and the Duration was 0 min.
Regarding `C[N+](C)(C)CC[N+]1(C)Cc2c(Cl)c(Cl)c(Cl)c(Cl)c2C1.[Cl-].[Cl-]` [Ecolid, reference compound], in data set [2], the “Effect pressure/duration: duration” value is given as “↓↓↓/↓↓↓ (> 30 min)”, the “Effect pressure/duration: pressure” value is listed as “↓↓↓/↓↓↓ (> 30%)”, the Heart rate entry is on record as “→” and the Diastol. pressure is given as 54.7%. Also, in data set [2], the Mean pressure was 50.4% and the “Systol. pressure” value was determined as 52.6%.
Regarding `CN1CC(CNC(=O)C(F)(F)C(F)(F)C(=O)NC2CCC(N)CC2)CC2c3cccc4[nH]cc(c34)CC21.O=C(O)C(F)(F)F.O=C(O)C(F)(F)F` (stereo not drawn) [Substance 9703157], in data set [1] (Table 1.2), the “Effect pressure/duration: duration” value is given as “↓↓ (up to 30 min)”, the “Effect pressure/duration: pressure” value is listed as “↓↓↓ (> 30%)” and the Duration worked out at 30 min. In data set [1] (Wistar rats, Table 1.2), the Heart rate result was “→”, the “Diastol. pressure” value stood at 49.6%, the Mean pressure is recorded as 48.8% and the “Systol. pressure” value worked out at 46.6%.
For the compound `O=C(O)C(F)(F)F` [TFA (equimolar), trifluoroacetic acid, reference compound], in data set [1] (Table 1.1), the “Effect pressure/duration: duration” value is “(↓)/(↓) (< 5 min)” and the “Effect pressure/duration: pressure” value was “(↓)/(↓) (to 10%)”. In data set [1] (Wistar rats, Table 1.1), the Heart rate entry was “→” and the Duration is over 1 min. Besides, in data set [1] (setting [3]), the Diastol. pressure worked out at 5.1%, the Mean pressure is given as 4.6% and the Systol. pressure is given as 4.3%.
